Read-outs that look alike come from different tables or passages of the source.
What was measured:
5-HT1A human receptors = biological target: T1, 5-HT1A human receptors (Homo sapiens, UniProt P08908); experiment: 5-HT1A Radioligand Receptor Binding Assay ([3H]-8-OH-DPAT, CHO cell membranes); settings: for inhibition at 0.1 µM: compound at 10^-7 M, singlicate, [3H]-8-OH-DPAT 0.6-0.7 nM, read-out: 5-HT1A receptor binding assay % inhib. (10^-7 M)
T1 construct: expressed in transfected cells; host or cells: CHO cells
T1 sequence (P08908 1-422): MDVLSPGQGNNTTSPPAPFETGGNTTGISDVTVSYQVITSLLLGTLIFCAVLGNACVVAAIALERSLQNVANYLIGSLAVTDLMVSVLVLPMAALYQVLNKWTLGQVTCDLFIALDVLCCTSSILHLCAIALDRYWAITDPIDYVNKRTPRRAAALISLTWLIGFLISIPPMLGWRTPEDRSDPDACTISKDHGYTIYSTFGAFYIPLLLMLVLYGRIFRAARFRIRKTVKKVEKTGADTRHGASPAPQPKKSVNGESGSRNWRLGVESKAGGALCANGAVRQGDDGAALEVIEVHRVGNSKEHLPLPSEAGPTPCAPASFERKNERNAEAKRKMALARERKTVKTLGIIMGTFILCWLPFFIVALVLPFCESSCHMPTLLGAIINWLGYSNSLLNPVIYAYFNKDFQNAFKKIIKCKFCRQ
Method: Membranes from CHO cells, expressing 5-HT1A human receptors were suspended in incubation buffer.
The compounds were tested in singlicate at one concentration (10^-7 M) in a total volume of 1000 µl. 980 µl of diluted membranes, 10 µl DMSO or unlabelled ligand and 10 µl of [^3H]-8-OH-DPAT (0.6-0.7 nM) were incubated for 60 min at 27 °C. The reaction was stopped by rapid filtration through Tomtec cell Harvester (48 wells) using Filtermat B (presoaked in 0.1% PEI) filters. […] Non specific binding was determined in the presence of 5-HT (10^-5 M).
(§1) The specific radioligand binding to the receptor was defined by the difference between total binding and non specific binding, determined in the presence of an excess of unlabelled ligand. Results were expressed as percentage of control specific binding obtained in the presence of the compounds.
(§2) The affinity values (IC50) for the compounds were obtained by a non linear least squares regression analysis on the basis of a one binding site model.

CHO/5-HT1A cells = biological target: T2, CHO/5-HT1A cells (Homo sapiens, UniProt P08908); experiment: 5-HT1A Functional assay (cAMP); type: cell-based; settings: 10 µM compound; % inhibition of the cAMP accumulation induced by 10 µM FSK; read-out: 5-HT1A cAMP % inhib.
T2 construct: expressed in transfected cells; host or cells: CHO/5-HT1A cells
T2 sequence (P08908 1-422): T1 sequence (P08908 1-422)
Method: CHO/5-HT1A cells were random seeded at a density of about 200,000/well in 24 well plates the day prior to the experiment. On the day of the experiment, cells were pretreated for 15 min at 37 °C with 500 µM isobuthylmethylxantine (IBMX) dissolved in culture medium without serum. Wells were then divided in different groups in duplicate as follows: control, 10 µM FSK, 10 µM FSK + 1 µM 5-HT as positive standard and 10 µM FSK + 10 µM of the different compound under evaluation. Sample solutions were added and incubated for additional 15 min at 37 °C. After incubation, medium was aspirated and the reaction stopped by adding 200 µl of lysis buffer. Plates were shaken for 5 min, then the lysate was removed and samples were stored at 4 °C until the day of the assay. For the cAMP evaluation, samples were properly diluted and the cAMP content was measured by an enzymeimmunoassay system.

5-HT2A = biological target: T3, 5-HT2A (Rattus norvegicus, UniProt P14842); experiment: 5HT2A Radioligand Receptor Binding Assay ([3H]-Ketanserin, cerebral frontal cortex membranes); parameters: species or system Rats; settings: 0.5 nM [3H]-Ketanserin
T3 construct: Cerebral frontal cortex was homogenized in 10 volumes of ice cold 0.32 M sucrose; from tissue; host or cells: rat cerebral frontal cortex membranes
Method: Rats (male Sprague-Dawley, 200-250 g) were used. Cerebral frontal cortex was homogenized in 10 volumes of ice cold 0.32 M sucrose in 5 mM Tris-HCl ([…]) buffer. After centrifugation of the homogenate (1,000 x g for 10 min) the supernatant was then recentrifuged at 48,000x g for 15 min.The resulting pellet was gently homogenized in an equal volume of 50mM Tris-HCl buffer (pH 7.4) and incubated at 37° C for 10 minutes. Membranes were then collected by centrifugation as above described and finally resuspended in 10 volumes of 50mM Tris-HCl buffer (pH 7.4).
For displacement experiments membranes (980 µl) were diluted in 50 mM Tris-HCl buffer (pH 7.4) to a final concentration of 1:100 (w/v); the tissue suspension was then incubated at 37 °C for 10 min in a final volume of 1 ml in the presence of 0.5 nM [^3H]-Ketanserin. Non specific binding was determined by incubating similar samples with unlabelled methysergide (100 µM). […] The filters were washed three times with 2 ml ice-cold Tris-HCl buffer and placed in polyethylene vials, then 4 ml of Filter Count scintillation cocktail (Packard) were added. The radioactivity present was counted by liquid scintillation spectrometry.
as §2

D4 human receptors = biological target: T4, D4 human receptors (Homo sapiens, UniProt P21917); experiment: D4 Radioligand Receptor Binding Assay ([3H] YM-09151-2, CHO cell membranes); settings: compound at 10^-7 M, singlicate; [3H] YM-09151-2 0.15-0.25 nM; read-out: D4 receptor binding assay % inhib. (10^-7 M)
T4 construct: expressed in transfected cells; host or cells: CHO cells
T4 sequence (P21917 1-419): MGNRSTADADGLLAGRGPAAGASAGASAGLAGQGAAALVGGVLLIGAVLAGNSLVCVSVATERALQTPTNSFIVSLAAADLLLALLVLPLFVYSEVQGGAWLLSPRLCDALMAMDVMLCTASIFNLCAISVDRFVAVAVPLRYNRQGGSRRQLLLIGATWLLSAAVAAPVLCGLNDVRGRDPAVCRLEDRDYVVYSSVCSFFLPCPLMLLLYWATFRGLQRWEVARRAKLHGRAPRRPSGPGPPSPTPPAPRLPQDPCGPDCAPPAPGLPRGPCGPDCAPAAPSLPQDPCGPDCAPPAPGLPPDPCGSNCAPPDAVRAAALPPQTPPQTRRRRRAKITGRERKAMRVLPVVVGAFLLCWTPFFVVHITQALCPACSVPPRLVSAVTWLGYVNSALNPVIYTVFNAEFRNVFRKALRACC
Method: Membranes from CHO cells, expressing D4 human receptors were suspended in incubation buffer.
Binding assays were performed in MultiProbe 204 pipetting system (Packard), according to a predetermined mapping, consistent with the software Screen. The compounds were tested in singlicate at one concentration (10^-7 M) in a total volume of 1000 µl (980 µl of diluted membranes, 10 µl DMSO or unlabelled ligand and 10 µl of [^3H] YM-09151-2 (0.15-0.25 nM). After incubation for 120 min at 27 °C, the reaction was stopped by rapid filtration through Tomtec cell Harvester (48 wells) using Filtermat B (presoaked in 0.1% PEI) filters. Filters were washed with ice-cold 50 mM Tris-HCl (pH 7.4) buffer (9 x 700 µl), dryed, covered with MeltiLex B/HS (Wallac) scintillator sheets and heated in oven at 80-90 °C for about 10 min, transferred into plastic sample bags (Wallac), sealed and put into 1024 Beta Plate scintillation counter (Wallac). Non specific binding was determined in the presence of clozapine dissolved in DMSO to a final concentration of 10^-5 M.
as §1

[1] = [3H]-8-OH-DPAT displacement, CHO membranes, read-out: 5-HT1A receptor binding IC50

T3 sequence (P14842 whole entry): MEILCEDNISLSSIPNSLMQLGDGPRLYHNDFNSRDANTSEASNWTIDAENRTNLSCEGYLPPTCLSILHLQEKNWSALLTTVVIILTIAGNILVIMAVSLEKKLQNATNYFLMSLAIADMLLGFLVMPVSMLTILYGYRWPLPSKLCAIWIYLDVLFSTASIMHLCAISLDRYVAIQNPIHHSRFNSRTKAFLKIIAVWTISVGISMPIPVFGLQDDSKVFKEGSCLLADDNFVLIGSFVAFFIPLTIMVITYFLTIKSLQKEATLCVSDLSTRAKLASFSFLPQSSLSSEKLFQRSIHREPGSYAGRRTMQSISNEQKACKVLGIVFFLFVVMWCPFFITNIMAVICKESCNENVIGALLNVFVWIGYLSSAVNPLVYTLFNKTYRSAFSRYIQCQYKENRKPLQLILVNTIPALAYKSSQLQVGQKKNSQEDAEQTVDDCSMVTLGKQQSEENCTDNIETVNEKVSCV

Structure (SMILES)	IC50 (5-HT1A human receptors; [1]) [nM]	inhibition at 0.1 µM (5-HT1A human receptors) [%]	inhibition at 10 µM (CHO/5-HT1A cells) [%]	IC50 (5-HT2A) [nM]	inhibition at 0.1 µM (D4 human receptors) [%]	IC50 (5-HT1A human receptors) [nM]
CCNC(=O)OCCn1c(=O)n(CCCCN2CCN(c3cccc(C(F)(F)F)c3)CC2)c2ccccc21 [compound 83]	15	89	64	43	39	–
CCNC(=O)OCCn1c(=O)n(CCN2CCN(c3cccc(C(F)(F)F)c3)CC2)c2ccccc21 [compound 206]	2.1	–	80	17	–	–
CCNC(=O)OCCn1c(=O)n(CC=CCN2CC=C(c3ccccc3)CC2)c2ccccc21 [compound 404]	–	95	60	–	34	–
O=c1n(C/C=C/CN2CCN(c3ccccn3)CC2)c2ccccc2n1CCN1CCCCC1 [compound 330]	–	97	62	–	84	–
COCCn1c(=O)n(CCN2CCN(c3cccc(C(F)(F)F)c3)CC2)c2ccccc21 [compound 168]	5	–	71	46	–	–
COCCn1c(=O)n(CCCCN2CCN(c3cccc(Cl)c3)CC2)c2ccccc21 [compound 5]	13	92	63	–	54	–
O=c1n(CCO)c2ccccc2n1CCCCN1CCN(c2cccc(C(F)(F)F)c2)CC1 [compound 64]	–	92	52	–	43	12
O=c1n(C/C=C\CN2CCN(c3ccccc3)CC2)c2ccccc2n1CCN1CCCCC1 [compound 310]	–	85	63	–	49	–
CS(=O)(=O)NCCn1c(=O)n(C/C=C\CN2CC=C(c3ccccc3)CC2)c2ccccc21 [compound 504]	–	93	50	–	34	–
COCCn1c(=O)n(CCN2CCN(c3cccc(Cl)c3)CC2)c2ccccc21 [compound 164]	4.2	96	73	–	41	–
O=c1n(C/C=C\CN2CCN(c3cccc(C(F)(F)F)c3)CC2)c2ccccc2n1CCO [compound 369]	–	96	84	–	59	–
O=c1n(C/C=C\CN2CCN(c3cccc(C(F)(F)F)c3)CC2)c2ccccc2n1CCN1CCCCC1 [compound 318]	–	92	61	–	36	–
Cc1cccc(N2CCN(CCCCn3c(=O)n(CCN4CCCCC4)c4ccccc43)CC2)c1C [compound 37]	16	90	44	–	54	–
Cc1cccc(N2CCN(CCn3c(=O)n(CCNS(C)(=O)=O)c4ccccc43)CC2)c1C [compound 254]	7.4	85	66	65	34	–
O=c1n(CCO)c2ccccc2n1CCN1CCN(c2cccc(Cl)c2)CC1 [compound 183]	7.2	96	66	27	62	–
COCCn1c(=O)n(CCN2CCN(c3cccc(C)c3C)CC2)c2ccccc21 [compound 177]	3.3	98	76	7.7	–	–
O=c1n(C/C=C/CN2CCN(c3cccc(C(F)(F)F)c3)CC2)c2ccccc2n1CCN1CCCCC1 [compound 335]	3.5	95	69	–	55	–
COCCn1c(=O)n(CCCCN2CCN(c3cccc(C(F)(F)F)c3)CC2)c2ccccc21 [compound 9]	9.9	93	48	16	32	–
O=c1n(C/C=C/CN2CCc3c([nH]c4ccccc34)C2)c2ccccc2n1CCN1CCCCC1 [compound 333]	–	99	67	–	80	–
Cc1cccc(N2CCN(CCn3c(=O)n(CCN4CCCCC4)c4ccccc43)CC2)c1C [compound 158]	13	95	48	–	72	–
CCNC(=O)OCCn1c(=O)n(C/C=C/CN2CCN(c3cccc(Cl)c3)CC2)c2ccccc21 [compound 416]	–	96	77	–	39	–
Cc1cccc(N2CCN(CCCCn3c(=O)n(CCO)c4ccccc43)CC2)c1C [compound 73]	13	91	45	0.9	58	–
